# Species on record: Rattus norvegicus
# Test: Open TG-GATES - Regimen: Single
# Type: toxicity, organism-based, Sprague-Dawley
# Parameters: regimen Single, gender Male, age 6 weeks
# Settings: in vivo, po, 0 mg/kg, route gavage, dose level Control; for APTT / Bas / Eos / Fbg / Hb / Ht / Lym / MCH / MCHC / MCV / Mono / Neu / PT / Plat / RBC / Ret / WBC: tissue Blood; for KIDNEY_L / KIDNEY_R / KIDNEY_TOTAL: tissue Kidney; for LIVER: tissue Liver; for A/G / ALP / ALT / AST / BUN / CRE / Ca / Cl / DBIL / GLC / IP / K / LDH / Na / PL / RALB / TBIL / TC / TG / TP / gamma-GTP: tissue Plasma
smiles,measurement,setting,value
C=CCO [ALLYL ALCOHOL],TERMINAL_BW,3 h,221.5 g
same,APTT,3 h,19.5 s
same,Bas,3 h,0%
same,Eos,3 h,1%
same,Fbg,3 h,226.4 mg/dL
same,Hb,3 h,13.4 g/dL
same,Ht,3 h,39.2%
same,Lym,3 h,73.8%
same,MCH,3 h,20.8 pg
same,MCHC,3 h,34.3%
same,MCV,3 h,60.8 fL
same,Mono,3 h,3%
same,Neu,3 h,21.8%
same,PT,3 h,12.2 s
same,Plat,3 h,135.4 x10_4/uL
same,RBC,3 h,645 x10_4/ul
same,Ret,3 h,6.7%
same,WBC,3 h,82.7 x10_2/uL
same,KIDNEY_L,3 h,0.9 g
same,KIDNEY_R,3 h,0.9 g
same,KIDNEY_TOTAL,3 h,1.8 g
same,LIVER,3 h,9.9 g
same,A/G,3 h,1.4
same,ALP,3 h,946 IU/L
same,ALT,3 h,41.2 IU/L
same,AST,3 h,72.2 IU/L
same,BUN,3 h,11.2 mg/dL
same,CRE,3 h,0.4 mg/dL
same,Ca,3 h,10.8 mg/dL
same,Cl,3 h,102 meq/L
same,DBIL,3 h,0.3 mg/dL
same,GLC,3 h,192.4 mg/dL
same,IP,3 h,9.1 mg/dL
same,K,3 h,3.9 meq/L
same,LDH,3 h,190.8 IU/L
same,Na,3 h,140 meq/L
same,PL,3 h,176.2 mg/dL
same,RALB,3 h,3.2 g/dL
same,TBIL,3 h,0.4 mg/dL
same,TC,3 h,83.8 mg/dL
same,TG,3 h,186.2 mg/dL
same,TP,3 h,5.6 g/dL
same,gamma-GTP,3 h,1.2 IU/L
same,TERMINAL_BW,6 h,221.2 g
same,APTT,6 h,19.3 s
same,Bas,6 h,0%
same,Eos,6 h,1%
same,Fbg,6 h,235.8 mg/dL
same,Hb,6 h,13.4 g/dL
same,Ht,6 h,38.9%
same,Lym,6 h,73.2%
same,MCH,6 h,21.4 pg
same,MCHC,6 h,34.5%
same,MCV,6 h,62.1 fL
same,Mono,6 h,4.2%
same,Neu,6 h,21.6%
same,PT,6 h,12.2 s
same,Plat,6 h,124.2 x10_4/uL
same,RBC,6 h,626.2 x10_4/ul
same,Ret,6 h,7.3%
same,WBC,6 h,115.2 x10_2/uL
same,KIDNEY_L,6 h,0.9 g
same,KIDNEY_R,6 h,1 g
same,KIDNEY_TOTAL,6 h,1.9 g
same,LIVER,6 h,9.6 g
same,A/G,6 h,1.6
same,ALP,6 h,1049.2 IU/L
same,ALT,6 h,33.2 IU/L
same,AST,6 h,62.6 IU/L
same,BUN,6 h,10 mg/dL
same,CRE,6 h,0.4 mg/dL
same,Ca,6 h,10.5 mg/dL
same,Cl,6 h,102.8 meq/L
same,DBIL,6 h,0.086 mg/dL
same,GLC,6 h,199.6 mg/dL
same,IP,6 h,8.9 mg/dL
same,K,6 h,3.8 meq/L
same,LDH,6 h,195.6 IU/L
same,Na,6 h,140.8 meq/L
same,PL,6 h,146 mg/dL
same,RALB,6 h,3.4 g/dL
same,TBIL,6 h,0.1 mg/dL
same,TC,6 h,74.8 mg/dL
same,TG,6 h,66.2 mg/dL
same,TP,6 h,5.5 g/dL
same,gamma-GTP,6 h,1 IU/L
same,TERMINAL_BW,9 h,217.9 g
same,APTT,9 h,18.7 s
same,Bas,9 h,0%
same,Eos,9 h,1%
same,Fbg,9 h,219.6 mg/dL
same,Hb,9 h,13.2 g/dL
same,Ht,9 h,38.5%
same,Lym,9 h,74.8%
same,MCH,9 h,20.7 pg
same,MCHC,9 h,34.4%
same,MCV,9 h,60.2 fL
same,Mono,9 h,3.2%
same,Neu,9 h,20.4%
same,PT,9 h,12.5 s
same,Plat,9 h,132.1 x10_4/uL
same,RBC,9 h,639.8 x10_4/ul
same,Ret,9 h,6.9%
same,WBC,9 h,99.3 x10_2/uL
same,KIDNEY_L,9 h,1 g
same,KIDNEY_R,9 h,0.9 g
same,KIDNEY_TOTAL,9 h,1.9 g
same,LIVER,9 h,9.1 g
same,A/G,9 h,1.5
same,ALP,9 h,880.4 IU/L
same,ALT,9 h,28.2 IU/L
same,AST,9 h,62.2 IU/L
same,BUN,9 h,12 mg/dL
same,CRE,9 h,0.4 mg/dL
same,Ca,9 h,10.4 mg/dL
same,Cl,9 h,101.6 meq/L
same,DBIL,9 h,0.08 mg/dL
same,GLC,9 h,208.2 mg/dL
same,IP,9 h,10.7 mg/dL
same,K,9 h,3.6 meq/L
same,LDH,9 h,158.4 IU/L
same,Na,9 h,141 meq/L
same,PL,9 h,148.4 mg/dL
same,RALB,9 h,3.3 g/dL
same,TBIL,9 h,0.1 mg/dL
same,TC,9 h,72.8 mg/dL
same,TG,9 h,81 mg/dL
same,TP,9 h,5.6 g/dL
same,gamma-GTP,9 h,1 IU/L
same,TERMINAL_BW,24 h,231.2 g
same,APTT,24 h,19.4 s
same,Bas,24 h,0%
same,Eos,24 h,1%
same,Fbg,24 h,235.8 mg/dL
same,Hb,24 h,13.1 g/dL
same,Ht,24 h,38.5%
same,Lym,24 h,78.2%
same,MCH,24 h,20.5 pg
same,MCHC,24 h,34.1%
same,MCV,24 h,60.3 fL
same,Mono,24 h,3%
same,Neu,24 h,17.2%
same,PT,24 h,12.2 s
same,Plat,24 h,140 x10_4/uL
same,RBC,24 h,640.6 x10_4/ul
same,Ret,24 h,6.2%
same,WBC,24 h,99.8 x10_2/uL
same,KIDNEY_L,24 h,0.9 g
same,KIDNEY_R,24 h,1 g
same,KIDNEY_TOTAL,24 h,1.9 g
same,LIVER,24 h,10.8 g
same,A/G,24 h,1.5
same,ALP,24 h,963.4 IU/L
same,ALT,24 h,35.8 IU/L
same,AST,24 h,63.2 IU/L
same,BUN,24 h,15.8 mg/dL
same,CRE,24 h,0.4 mg/dL
same,Ca,24 h,10.8 mg/dL
same,Cl,24 h,102 meq/L
same,DBIL,24 h,0.098 mg/dL
same,GLC,24 h,196.4 mg/dL
same,IP,24 h,7.1 mg/dL
same,K,24 h,4 meq/L
same,LDH,24 h,186.4 IU/L
same,Na,24 h,140.8 meq/L
same,PL,24 h,147.6 mg/dL
same,RALB,24 h,3.3 g/dL
same,TBIL,24 h,0.2 mg/dL
same,TC,24 h,74.2 mg/dL
same,TG,24 h,116 mg/dL
same,TP,24 h,5.6 g/dL
same,gamma-GTP,24 h,0.8 IU/L
